Experimental findings from PubChem BioAssay (NCI) are described below.

Holding throughout (test): NCI anticancer screen, dose series, 48 h
Assay [1] concerns KM12 colon.
Assay [2] deals with SK-OV-3 ovarian.
The test system of assay [3] is CAKI-1 renal.
The test system of assay [4] is A549 NSCLC.
Assay [5] has as its system UACC-62 melanoma.
Assay [6] has as its system CCRF-CEM leukemia.
For assay [7], the system named is UO-31 renal.
In assay [8] the test system is PC-3 prostate.
The subject of assay [9] is SF-295 CNS.
Assay [10] concerns MCF7 breast.

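These data come from cells grown in 96-well plates and exposed to compound for 48 hours at five concentrations. Abbreviation: GI50, concentration required for 50% inhibition of growth. TGI: total growth inhibition.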

In the case of `CCOCCc1c(O)nc(SC)[nH]c1=O`, the GI50 in assay [1], in assay [2], in assay [3], in assay [4], in [5] and in assay [6] was more than 100 µM in each case. In addition, the GI50 in assay [7], in assay [8], in [9] and in [10] was more than 100 µM throughout. The TGI in assay [1], in assay [2], in assay [3], in [4], in assay [5] and in assay [6] was more than 100 µM throughout. Also, the TGI in assay [7], in [8], in assay [9] and in assay [10] was more than 100 µM each time.
In the case of `O=C(N/N=C/c1coc2ccc(Cl)cc2c1=O)c1ccncc1`, the GI50 is 58.4 µM in assay [1]; more than 100 µM in [2]; 74.1 µM in assay [3]; 98.2 µM in assay [4]; 46.5 µM in [5]; 28.1 µM in assay [6]. Also, the GI50 in assay [7] was 58.4 µM; in assay [8] it was 59.1 µM; in assay [9] it was 50.1 µM; in assay [10], 47.2 µM. Further, the TGI in assay [1], in [2], in assay [3], in assay [4], in assay [5] and in assay [6] was more than 100 µM in each case. Besides, the TGI in assay [7], in [8], in assay [9] and in [10] was more than 100 µM throughout.
As to `C(=N/Nc1ncnc2nc[nH]c12)/c1ccccn1`, the GI50 was 0.661 µM in [1]; 0.456 µM in assay [2]; 0.308 µM in assay [3]; 1.27 µM in [4]; 0.514 µM in [5]; 0.227 µM in assay [6]. The GI50 in assay [7] is 0.265 µM; in assay [8], 0.786 µM; in assay [9], 0.774 µM; in assay [10] it was 0.444 µM. Also, the TGI in assay [1] was more than 100 µM; in assay [2], 15.6 µM; in [3] it was 2.64 µM; in [4], more than 100 µM; in assay [5], 3.24 µM; in [6], more than 100 µM. For the same molecule, the TGI in assay [7] is 3.09 µM; in [8], more than 100 µM; in [9], 16 µM; in assay [10], more than 100 µM.
Regarding `CCCCCCCCCCCCOC1C(CNC(=O)C2OC3OC(C)(C)OC3C2NC(=O)CN2CCN(c3ccccn3)CC2)OC2OC(C)(C)OC21` (stereo not given), the GI50 in [1] was 2.16 µM; in [2] it was 5.18 µM; in assay [3], 2.27 µM; in assay [4], 1.6 µM; in [5], 1.61 µM; in assay [6], 2.5 µM. Further, the GI50 is 1.42 µM in assay [7], 1.75 µM in assay [8], 1.77 µM in assay [9] and 1.94 µM in assay [10]. Moreover, the TGI in [1] was 4.43 µM; in assay [2], 9.86 µM; in assay [3], 4.59 µM; in assay [4], 3.07 µM; in [5] it was 3.05 µM; in assay [6] it was 5.5 µM. Also, the TGI turned out to be 2.72 µM in assay [7], 3.24 µM in assay [8], 3.48 µM in [9] and 4.58 µM in assay [10].
Consider `COC(=O)NNc1c([N+](=O)[O-])cnn(-c2ccccc2)c1=O`, for which the TGI was found to be 16.9 µM in assay [1]; 17 µM in [2]; 8.24 µM in assay [3]; 28.2 µM in [4]; 5.15 µM in assay [5]; 1.55 µM in assay [6]. Also, the TGI in assay [7] is 15.9 µM; in assay [8], 3.21 µM; in assay [9] it was 8.37 µM; in [10], 18 µM.
With `CCOC(=O)c1c[nH]c2c(OCc3ccccc3)c3ccccc3c(O)c2c1=O`, the GI50 was 6.89 µM in assay [1]; 26.3 µM in assay [2]; 4.37 µM in [3]; 9.33 µM in assay [4]; 3.1 µM in [5]; 5.73 µM in [6]. For the same molecule, the GI50 in assay [7] was 21.7 µM; in [8] it was 2.97 µM; in assay [9], 2.09 µM; in assay [10], 9.55 µM. For the same molecule, the TGI in [1] is more than 84.5 µM; in [2] it was more than 100 µM; in assay [3], 21.1 µM; in assay [4], more than 56 µM; in assay [5], 15.8 µM; in assay [6] it was more than 100 µM. Moreover, the TGI in assay [7] was more than 100 µM; in assay [8], more than 68 µM; in [9], 15.5 µM; in assay [10], more than 67.4 µM.
For the molecule `CSC(=S)N/N=C/c1ccccc1`, the TGI was more than 100 µM in assay [1]; more than 100 µM in [2]; 89.4 µM in [3]; more than 100 µM in assay [4]; more than 100 µM in [5]; more than 100 µM in [6]. Besides, the TGI in [7], in [8], in assay [9] and in assay [10] was more than 100 µM each time.
Regarding `CCOC(=O)c1ccc2c(c1)[n+](=O)c(C(=O)c1ccc3ccccc3c1)c(C(F)(F)F)n2[O-]`, the GI50 is 1.25 µM in [1]; 1.64 µM in assay [2]; 1.42 µM in [3]; 1.89 µM in assay [4]; 1.52 µM in assay [5]; 0.4 µM in assay [6]. The GI50 was 1.3 µM in [7], 0.729 µM in assay [8], 1.78 µM in assay [9] and 0.901 µM in assay [10]. Further, the TGI was determined as 2.51 µM in assay [1]; 2.99 µM in assay [2]; 2.85 µM in [3]; 3.62 µM in assay [4]; 2.93 µM in [5]; 2.29 µM in [6]. Besides, the TGI was 2.57 µM in assay [7], 2 µM in assay [8], 3.17 µM in assay [9] and 2.42 µM in [10].
